Test results published in patent publication US10016414B2, “Modulation of ubiquitination of synaptic proteins for the treatment of neurodegenerative and psychiatric disorders” (UNIVERSITY OF MASSACHUSETTS, priority 2010, dated 2018).

Experiments:
[1] = tested on: surface GluA1 (AMPAR) in hippocampal neurons; test: Aβ-induced AMPAR endocytosis: surface GluA1 in cultured hippocampal neurons; type: cell-based, rat; conditions: for GluA1 surface expression (GluA1 puncta normalized to SV2 puncta and to naïve cultures): 2 hrs, naïve 100%±4%, n=3
Procedure: A. Micrograph showing GluA2 surface expression upon Aβ treatment in the presence or absence of Nutlin-3. Rat hippocampal neurons were cultured, and treated with Aβ or Aβ together with either Nutlin-3 (5 μM) or HLI373 (15 μM) for 2 hours. The final concentration of Aβ was 0.3 ng/mL. Naïve and Nutlin-3 and HLI373 treatments, without Aβ treatment, were used as controls. Surface expression of AMPARs was measured by labeling the cultured neurons in vivo with an antibody to the AMPAR subunit GluA1, followed by confocal microscopy and immunofluorescence quantification by MetaMorph. The number of GluA1 puncta was normalized to SV2 puncta (a presynaptic marker) and to the value in control naïve cultures. […] Scale bar=5 μm. B. Bar graph showing quantification of the percentage of surface GluA1 in response to the various treatment described in A. Results are presented as mean±SEM.
Soluble amyloid beta (Aβ) peptides contribute directly to synapse loss and decreased dendritic spine density and glutamate receptors at the synapse. Moreover, Aβ has been reported to induce AMPAR internalization in cultured neurons. To evaluate the effect of Mdm2 inhibitors on this process, cultured rat hippocampal neurons were treated for 2 hrs with Aβ (or Aβ together with either Nutlin-3 (5 μM) or HLI-373 (15 μM). Aβ can be prepared from 7PA2 Chinese hamster ovary (CHO) cells stably expressing human amyloid precursor protein (APP)751 containing the V717 mutation (Walsh et al., 2005; Shankar et al., 2007; Shankar et al., 2011), and is also available commercially from, e.g., rPeptide (Bogart, G A). The concentration of Aβ in the hippocampal cultures was 0.3 ng/mL. Naïve and Nutlin-3 and HLI-373 treatments were used as controls. Surface expression of AMPARs was measured by labeling the cultured neurons in vivo with an antibody to the AMPAR subunit GluA1, followed by confocal microscopy and immunofluorescence quantification by MetaMorph. The number of GluA1 puncta was normalized to SV2 puncta (a presynaptic marker) and to the value in control naïve cultures (see FIGS. 8A and B).
Minimum inhibitor concentrations of Nutlin-3a or HLI-373, as well as any other Mdm2 inhibitor identified using the screens described supra, can be readily determined by using different ranges of inhibitor concentrations and assessing the effects of the particular concentrations on surface expression of AMPARs. Similar results are expected with other inhibitors of PSD-95 ubiquitination by Mdm2, such as PSD-95 inhibitors.

[2] = oral gavage, 100 mg/kg once daily; between 1-8 hours after administration (Zhang et al., 2011); cited from earlier work
[3] = tested on: surface GluA2 (AMPAR) in hippocampal neurons; test: NMDA-induced AMPAR endocytosis: surface GluA2 by antibody feeding in hippocampal cultures; type: cell-based, rat; conditions: inhibitor 5 μM for 30 min before NMDA 100 μM for 3 min, then 15 min; naïve 100%±9.47%; n=3
Procedure: A. Micrograph showing GluA2 surface expression upon NMDA treatment in the presence or absence of Nutlin-3. Cultured hippocampal neurons were subjected to an antibody feeding protocol using an antibody that recognizes an extracellular domain of GluA2. The neurons were subsequently pretreated with Nutlin-3 (5 μM for 30 min) prior to NMDA treatment (100 μM for 3 min), followed by agonist washout. Neurons were incubated for an additional 15 min (with or without Nutlin-3) before immunocytochemical analysis of PSD-95 and surface GluA2 by confocal microscopy.
B. A bar graph depicting the proportion of GluA2 found at the surface of cultured hippocampal neurons upon treatment with or without NMDA, in the presence or absence of Nutlin-3. Results are presented as mean±SEM.
Brief stimulation of NMDARs induces AMPAR endocytosis in cultured neurons (Colledge et al., 2003; Bhattacharyya et al., 2009). To determine whether Nutlin-3a antagonizes NMDA-induced AMPAR endocytosis, measured as loss of surface AMPAR staining, the surface expression of GluA2 (a subunit of AMPARs in rat hippocampal cultures) was assessed. Surface GluA2 were labeled in vivo by an antibody feeding protocol using an antibody that recognizes an extracellular domain of GluA2 (Ehlers, 2000; Lin et al., 2000; Bhattacharyya et al., 2009). Neurons were pretreated with Nutlin-3a (5 μM for 30 min) prior to NMDA treatment. After brief stimulation with NMDA (100 μM for 3 min) and agonist washout, neurons were incubated for an additional 15 min (with or without Nutlin-3a) before immunocytochemical analysis of PSD-95 and surface GluA2 by confocal microscopy under the same settings. Immunostained puncta were quantified using MetaMorph software (3 neurons from 2 coverslips with approximately 450 puncta analyzed/condition) and the number of GluA2 puncta was normalized to the number of PSD-95 puncta.
Naïve and NMDA-stimulated conditions were used as controls. […]

[4] = molecular target: T1, interaction between PSD-95 and Mdm2 (Mus musculus, UniProt P23804); test: Mdm2 binding to PSD-95 in acute forebrain slices (Mdm2 immunoprecipitation, PSD-95 Western blot); type: cell-based; conditions: Nutlin-3 5 μM for 30 min, normalized to absence of Nutlin-3
T1 construct: from tissue; host or cells: acute mouse forebrain slices
Procedure: A. Immunoblot showing the interaction between Mdm2 and PSD-95 in the presence or absence of the Mdm2 inhibitor Nutlin-3. Acute mouse forebrain slices were treated with Nutlin-3 (5 μM for 30 min), followed by immunoprecipitation of Mdm2. Immunoprecipitates were subjected to Western blot analysis with anti-PSD-95 and anti-Mdm2 antibodies. IgG: control immunoprecipitation with mouse IgG.
B. A bar graph depicting the proportion of PSD-95 bound to Mdm2 from FIG. 6A, normalized to levels of PSD-95 bound to Mdm2 in the absence of Nutlin-3. There was a 60% decrease in the interaction of PSD-95 with Mdm2.
To test this hypothesis, acute mouse forebrain slices were prepared and subjected to treatment with or without Nutlin-3. The interaction between PSD95 and Mdm2 was assessed by immunoprecipitation of Mdm2, followed by Western blot analysis to assess the extent of PSD-95 binding. Consistent with PSD-95 binding to the same region of Mdm2 as other Mdm2 substrates, Nutlin-3 decreased the interaction between PSD-95 with Mdm2 by 60% (FIGS. 6A and B).

T1 sequence (P23804 whole entry): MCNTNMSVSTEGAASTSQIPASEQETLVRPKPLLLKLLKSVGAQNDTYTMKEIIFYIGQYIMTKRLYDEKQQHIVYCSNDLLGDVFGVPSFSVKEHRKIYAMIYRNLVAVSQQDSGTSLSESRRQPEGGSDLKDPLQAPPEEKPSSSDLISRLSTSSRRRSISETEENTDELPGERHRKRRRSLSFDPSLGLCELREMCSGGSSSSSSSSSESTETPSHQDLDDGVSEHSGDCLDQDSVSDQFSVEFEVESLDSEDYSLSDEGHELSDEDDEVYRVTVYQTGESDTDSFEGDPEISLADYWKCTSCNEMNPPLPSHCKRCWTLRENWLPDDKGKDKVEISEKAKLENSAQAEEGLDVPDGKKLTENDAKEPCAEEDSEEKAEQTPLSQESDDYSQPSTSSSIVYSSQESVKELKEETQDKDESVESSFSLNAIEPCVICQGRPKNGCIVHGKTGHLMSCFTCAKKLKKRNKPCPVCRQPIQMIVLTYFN

Structure (SMILES) | GluA1 surface expression (GluA1 puncta normalized to SV2 puncta and to naïve cultures) ([1]; co-treatment with Aβ 0.3 ng/mL, Nutlin 5 μM, HLI373 15 μM) | concentration in brain tissue [2] [nM] | effect on loss of surface GluA1 induced by Aβ ([1]; Aβ 0.3 ng/mL, 2 hours, Nutlin-3 5 μM, HLI373 15 μM) | GluA1 surface expression (GluA1 puncta normalized to SV2 puncta and to naïve cultures) ([1]; inhibitor alone, without Aβ, Nutlin-3 5 μM, HLI-373 15 μM) | GluA2 surface expression (GluA2 puncta normalized to PSD-95 puncta, versus naïve control) [3] [%] | decrease in the interaction of PSD-95 with Mdm2 [4] [%]
COc1ccc(C2=NC(c3ccc(Cl)cc3)C(c3ccc(Cl)cc3)N2C(=O)N2CCNC(=O)C2)c(OC(C)C)c1 (single isomer, unassigned; (-)) [Nutlin-3a, (−)-4-(4,5-bis(4-chlorophenyl)-2-(2-isopropoxy-4-methoxyphenyl)-4,5-dihydro-1H-imidazole-1-carbonyl)piperazin-2-one] | 152.29%±19.88% | 1000 to 2000 | – | – | – | –
COc1ccc(C2=N[C@@H](c3ccc(Cl)cc3)[C@@H](c3ccc(Cl)cc3)N2C(=O)N2CCNC(=O)C2)c(OC(C)C)c1 [Nutlin-3] | – | – | prevented the loss of surface GluA1 induced by Aβ treatment | 90.6%±3.71% | 60.86±3.98 | 60
